Experimental findings from patent US20230033195A1, “METHODS AND COMPOSITIONS FOR IMPROVING COGNITIVE FUNCTION” (THE JOHNS HOPKINS UNIVERSITY, priority 2011, published 2023) are described below.

The subject of the test is aged-impaired (AI) rats. The test is described as follows: eight-arm Radial Arm Maze (RAM) task with one-hour delay, spatial memory retention. Format: in vivo, rat. As to conditions: for average no. of errors ± SEM: one-hour delay, vehicle 2.00 ± 0.42. How it is done:
FIG. 3 depicts the effects of administering levetiracetam on the spatial memory retention of ten aged-impaired rats (AI) in an eight-arm Radial Arm Maze (RAM) test. Six treatment conditions were employed: vehicle control, levetiracetam (1.25 mg/kg), levetiracetam (2.5 mg/kg), levetiracetam (5 mg/kg), levetiracetam (10 mg/kg) and levetiracetam (20 mg/kg). In the RAM task used, there was a one-hour delay between presentation of a subset of arms (5 arms available and 3 arms blocked) and completion of the eight-arm win-shift task (eight arms available). Rats were pre-treated 30 - 40 minutes before daily trials with a one-time drug/control treatment. The number of errors made by the rats after the delay was used as a measure of spatial memory retention. Errors were defined as instances when rats entered an arm from which food had already been retrieved in the pre-delay component of the trial or when rats re-visited an arm in the post-delay session that had already been visited. Paired t-tests were used to compare the number of errors between different doses of levetiracetam and vehicle control.
The effects of levetiracetam on the spatial memory retention of aged-impaired (AI) rats were assessed in a Radial Arm Maze (RAM) behavioral task using vehicle control and five different dosage levels of levetiracetam (1.25 mg/kg/day, 2.5 mg/kg/day, 5 mg/kg/day, 10 mg/kg/day and 20 mg/kg/day). RAM behavioral tasks were preformed on ten AI rats. All six treatment conditions were tested on all ten rats, as described above for the MWM test.
The RAM apparatus used consisted of eight equidistantly-spaced arms. An elevated maze arm (7 cm width x 75 cm length) projected from each facet of an octagonal center platform (30 cm diameter, 51.5 cm height). Clear side walls on the arms were 10 cm high and were angled at 65° to form a trough. A food well (4 cm diameter, 2 cm deep) was located at the distal end of each arm. Froot Loops™ (Kellogg Company) were used as rewards. Blocks constructed of Plexiglas™ (30 cm height x 12 cm width) could be positioned to prevent entry to any arm. Numerous extra maze cues surrounding the apparatus were also provided.
The AI rats were initially subjected to a pre-training test (Chappell et al. Neuropharmacology 37: 481-487, 1998). The pre-training test consisted of a habituation phase (4 days), a training phase on the standard win-shift task (18 days) and another training phase (14 days) in which a brief delay was imposed between presentation of a subset of arms designated by the experimenter (e.g., 5 arms available and 3 arms blocked) and completion of the eight-arm win-shift task (i.e., with all eight arms available).
In the habituation phase, rats were familiarized to the maze for an 8-minute session on four consecutive days. In each of these sessions food rewards were scattered on the RAM, initially on the center platform and arms and then progressively confined to the arms. After this habituation phase, a standard training protocol was used, in which a food pellet was located at the end of each arm. Rats received one trial each day for 18 days. Each daily trial terminated when all eight food pellets had been obtained or when either 16 choices were made or 15 minutes had elapsed. After completion of this training phase, a second training phase was carried out in which the memory demand was increased by imposing a brief delay during the trial. At the beginning of each trial, three arms of the eight-arm maze were blocked. Rats were allowed to obtain food on the five arms to which access was permitted during this initial 'information phase' of the trial. Rats were then removed from the maze for 60 seconds, during which time the barriers on the maze were removed, thus allowing access to all eight arms. Rats were then placed back onto the center platform and allowed to obtain the remaining food rewards during this 'retention test' phase of the trial. The identity and configuration of the blocked arms varied across trials. […]

For the compound `CC[C@@H](C(N)=O)N1CCCC1=O` [levetiracetam, (2S)-2-(2-oxopyrrolidin-1-yl) butanamide], the “average no. of errors ± SEM” value reads like this: (5 mg/kg/day i.p.) 0.75 ± 0.32; (10 mg/kg/day i.p.) 0.80 ± 0.27. For the same compound, the “memory performance relative to vehicle control” value runs as follows: (5 mg/kg/day, t(9) = 2.18, p = 0.057) “significantly improved memory performance”; (10 mg/kg/day, t(9) = 2.37, p = 0.042) “significantly improved memory performance”. Also, where the note is “levetiracetam 20 mg/kg”, the “performance of AI rats in the radial maze task” value is given as “fails to improve the performace”. The “effective in reducing the number of errors, on its own” value (levetiracetam i.p. 1.25 mg/kg) is on record as “not”; the “effective in reducing the number of errors, on its own” value (levetiracetam i.p. 2.5 mg/kg) is on record as “not”; the “effective in reducing the number of errors, on its own” value (levetiracetam i.p. 5-10 mg/kg) is on record as “effective”.
